System: HBV εRNA
Assay: εRNA/oligonucleotide hybridization inhibition assay with rRNA competitor
Assay type: binding, Hepatitis B virus
Conditions: for Specificity: ratio RRE+rRNA IC50/εRNA+rRNA IC50, max = inactive in RRE assay
Description: One assay used in determining the activity of the compounds of the present invention is disclosed in copending U.S. patent application Ser. No. 08/709,342, filed Sep. 6, 1996, the disclosure of which is hereby incorporated herein by reference in its entirety. The assay detects the interaction between target RNA molecule and a test ligand by measuring the ligand's ability to inhibit hybridization between the RNA and a specific complementary oligonucleotide. In one embodiment, the target RNA is radiolabelled and the oligonucleotide is labeled with biotin; in this case, the extent of hybridization is determined by measuring the amount of radiolabeled RNA detected with a streptavidin/biotin-based capture system.
Concentrations of test compounds of between about 0.1 μM and about 200 μM are assayed for inhibition using radiolabeled εRNA in the absence or presence of a large excess of an unlabeled non-specific RNA competitor (such as, e.g., ribosomal RNA, rRNA). Compounds that bind εRNA non-specifically are competitively displaced by the rRNA, resulting in reduced or no inhibition of hybridization between the radiolabeled εRNA and the biotinylated oligonucleotide. Conversely, the inhibitory activity of compounds that specifically bind εRNA is not affected by the presence of the competitor rRNA.
The high throughput assays were performed in 96-well plates containing eighty drugs (5 μl, 60 μg/ml in DMSO) distributed one per well in columns 2-6 and 8-12 of the 8×12 96-well array. The remaining 16 wells in columns 1 and 7 were filled with 5 μl DMSO to serve as the control reactions. 45 μl of reaction mixture containing buffer, salts and radiolabeled target RNA were delivered on each well of the compound-containing plates to yield a 50 μl mixture containing 50 mM Tris-HCl, pH 7.5, 200 mM KCl, 5 mM MgCl2, 5 mM DTT, 6 μg/ml test compound, and 25 nM [^32 P]-labeled εRNA. The reaction was started by addition of the biotinylated oligonucleotide, 262.104 A (5 μl) to a final concentration of 100 nM. The reaction was incubated at 25° C. for 60 minutes, and then 5 μl of 0.3 mg/ml SAAP (streptavidin alkaline phosphatase conjugate, Pierce, Rockford, Ill.) was added. The reaction was incubated for an additional 30 minutes at 25° C. and filtered through 96-well format HATF nitrocellulose filters (Millipore, Bedford, Mass.) using a multiscreen vacuum manifold (Millipore, Bedford, Mass.). Subsequently, 300 μl of wash buffer (50 mM Tris-HCl, pH 7.5, 200 mM KCl) was filtered through to wash the filters. The filters were dried and supplemented with 20 μl scintillation fluid (Super Mix, Wallac Oy, Turku, Finland). The amount of hybrids formed was determined by scintillation counting of the radiolabeled εRNA retained on the filters.
The inhibitory effect of a test compound (expressed as percentage of inhibition, % Inh.) was calculated using the following formula: […]
where Ro is the average retention of hybrids in the 16 identical control reactions in columns 1 and 7 and Rx is the hybrids retained in the presence of a test drug, x.
Biotinylated oligonucleotides 262.104 A (5′-biotin-TTAGGCACAGCTTGGAGGCTTGAACAGTG-3′) and 208.92 A (5′-biotin-CGTCATTGACGCTGCGCCCA-3′) were synthetically prepared (Oligos Etc., Willsonville, Oreg.). These oligonucleotides are complementary to regions of the εRNA and RRE RNA targets, respectively.
A plasmid containing the target sequence following the bacteriophage SP6 promoter was used as a template for the synthesis of radiolabeled εRNA using [α^32 P]-UTP and SP6 RNA polymerase as described by the suppliers, e.g., Ambion, Austin, Tex., and by methods well known to those of ordinary skill in the art.
Compounds that inhibited the primary screening assay described above were individually titrated in the same assay at concentrations between 0.1 μM and 200 μM in the absence and presence of 60-fold excess rRNA as a non-specific competitor. […]

[1] = radiolabeled εRNA, 60-fold excess rRNA competitor

Structure (SMILES)	IC50 [1] [µM]	Specificity	HBV + rRNA IC50 (μM) [1]
Cc1ccc(Nc2nc(NCc3ccccc3)nc(Nc3ccc([N+](=O)[O-])cc3)n2)cc1C [Compound 194]	34	max.	–
COc1ccc(Nc2nc(NN=Cc3ccc(Cl)cc3)nc(Nc3ccccc3)n2)cc1 [Compound 22]	3.6	max.	–
Cc1ccc(Nc2nc(NN=Cc3ccccc3)nc(Nc3ccccc3)n2)cc1 [Compound 25]	11.9	max.	–
CN(C)c1nc(NCc2ccccc2)nc(NCc2cccs2)n1 [Compound 192]	235	max.	–
Cc1ccc(Nc2nc(NN=Cc3ccc(I)cc3)nc(Nc3ccccc3)n2)c(C)c1 [Compound 113]	33.1	9.1	–
CNc1nc(NN=Cc2cc(Cl)ccc2O)nc(Nc2ccccc2)n1 [Compound 245]	8.1	max.	–
Cc1ccc(Nc2nc(NCc3ccccc3)nc(NN=Cc3cc(Cl)ccc3O)n2)cc1C [Compound 226]	84.4	5.0	–
CCN(CC)c1nc(NN=Cc2ccc([N+](=O)[O-])cc2)nc(Nc2ccccc2)n1 [Compound 13]	4.9	max.	–
COc1c(C=NNc2nc(NCc3ccccc3)nc(Nc3ccccc3)n2)cccc1[N+](=O)[O-] [Compound 162]	11.7	max.	–
CCCCN(CCCC)c1nc(NN=Cc2cccc(Cl)c2)nc(Nc2ccc([N+](=O)[O-])cc2)n1 [Compound 35]	24.9	max.	–
C(=Cc1ccccc1)C=NNc1nc(Nc2ccccc2)nc(Nc2ccccc2)n1 [Compound 125]	35.1	28.5	–
Oc1ccc2ccccc2c1C=NNc1nc(Nc2cccc3ccccc23)nc(N2CCOCC2)n1 [Compound 167]	50.9	max.	–
CC(=NNc1nc(NCc2ccccc2)nc(Nc2ccccc2)n1)c1ccc([N+](=O)[O-])cc1 [Compound 182]	70.4	max.	–
O=[N+]([O-])c1ccc(Nc2nc(NCc3ccccc3)nc(NN=Cc3ccccc3)n2)cc1 [Compound 24]	10	max.	–
Ic1cccc(C=NNc2nc(Nc3ccc4ccccc4c3)nc(N3CCOCC3)n2)c1 [Compound 166]	36.3	max.	–
Oc1ccc(I)cc1C=NNc1nc(NCc2ccccc2)nc(Nc2ccccc2)n1 [Compound 33]	37.2	max.	–
Clc1ccc(C=NNc2nc(Nc3ccccc3)nc(N3CCCC3)n2)cc1 [Compound 218]	4.8	12.0	–
Cc1[nH]c2ccccc2c1C=NNc1nc(Nc2ccccc2)nc(Nc2ccc([N+](=O)[O-])cc2)n1 [Compound 6]	10.4	max.	–
CC(=NNc1nc(Nc2ccccc2)nc(N2CCCC2)n1)c1ccc([N+](=O)[O-])cc1 [Compound 183]	47.8	max.	–
Cc1ccc(Nc2nc(NN=Cc3ccc(O)cc3O)nc(Nc3ccc([N+](=O)[O-])cc3)n2)cc1C [Compound 9]	6.2	132.6	–
Oc1ccc(Cl)cc1C=NNc1nc(Nc2ccc3ccccc3c2)nc(N2CCOCC2)n1 [Compound 160]	9.5	44.2	–
Cc1ccc(Nc2nc(NN=Cc3cc(I)ccc3O)nc(Nc3ccccc3)n2)c(C)c1 [Compound 159]	2.7	max.	–
CCCCN(CCCC)c1nc(N/N=C/c2cc(I)cc(I)c2O)nc(Nc2ccc([N+](=O)[O-])cc2)n1 [Compound 8]	4	max.	–
COc1ccc(Nc2nc(NN=Cc3ccc(OC)cc3OC)nc(Nc3ccccc3)n2)cc1 [Compound 20]	11.7	max.	–

Structure (SMILES)	IC50 [1] [µM]	Specificity	HBV + rRNA IC50 (μM) [1]
Oc1ccccc1C=NNc1nc(Nc2ccccc2)nc(N2CCCCC2)n1 [Compound 169]	15.4	max.	–
Cc1ccc(Nc2nc(NCc3cc(F)ccc3F)nc(Nc3ccc([N+](=O)[O-])cc3)n2)cc1C [Compound 248]	–	–	inactive
Cc1ccc(Nc2nc(NN=Cc3ccccc3O)nc(Nc3ccc([N+](=O)[O-])cc3)n2)cc1C [Compound 12]	2.6	max.	–
Cc1cccc(C(=O)Oc2ccc(C=NNc3nc(N4CCCCC4)nc(N4CCCCC4)n3)cc2)c1 [Compound 181]	60	max.	–
COc1c(C=NNc2nc(Nc3ccccc3)nc(Nc3ccccc3)n2)ccc(Br)c1O [Compound 168]	19.7	max.	–
CCN(CC)c1nc(NN=Cc2c(O)ccc3ccccc23)nc(Nc2ccccc2)n1 [Compound 171]	9.4	max.	–
O=[N+]([O-])c1ccc(Nc2nc(NN=Cc3ccc(Br)cc3)nc(N3CCCCCC3)n2)cc1 [Compound 117]	15.6	max.	–
CCN(CC)c1nc(NN=Cc2ccc(Cl)c([N+](=O)[O-])c2)nc(Nc2cc(C)ccc2C)n1 [Compound 214]	42.6	max.	–
Brc1cccc(C=NNc2nc(Nc3ccccc3)nc(N3CCOCC3)n2)c1 [Compound 163]	99	max.	–
Cc1ccc(Nc2nc(Nc3cccc(C(F)(F)F)c3)nc(N3CCOCC3)n2)cc1C [Compound 251]	45	max.	–
COc1ccc(Nc2nc(NN=Cc3cc(Br)cc(Br)c3O)nc(N3CCOCC3)n2)cc1 [Compound 200]	12.1	max.	–
CN(C)c1nc(NCc2ccccc2)nc(NN=Cc2ccc(Cl)cc2Cl)n1 [Compound 224]	60.1	max.	–
FC(F)(F)c1cccc(Nc2nc(Nc3cccc(Cl)c3)nc(N3CCOCC3)n2)c1 [Compound 247]	6.7	max.	–
Cc1ccc(C=NNc2nc(Nc3ccc([N+](=O)[O-])cc3)nc(Nc3ccccc3C)n2)cc1 [Compound 15]	11	max.	–
CCCCN(CCCC)c1nc(NN=Cc2ccc3c(c2)OCO3)nc(Nc2ccc([N+](=O)[O-])cc2)n1 [Compound 11]	15	max.	–
Cc1ccc(Nc2nc(NN=Cc3cccc(I)c3)nc(Nc3ccccc3)n2)cc1 [Compound 30]	25	max.	–
COc1c(Br)cc(Br)cc1C=NNc1nc(Nc2ccccc2)nc(N2CCCCC2)n1 [Compound 14]	7.1	max.	–
Cc1ccc(Nc2nc(NN=Cc3ccc(Cl)cc3)nc(N3CCOCC3)n2)cc1 [Compound 249]	47.2	max.	–
Cc1ccc(Nc2nc(NCc3ccccc3)nc(NN=Cc3ccc(F)cc3F)n2)cc1C [Compound 191]	87	max.	–
CC(C=NNc1nc(Nc2ccc([N+](=O)[O-])cc2)nc(Nc2ccc(C)c(C)c2)n1)=Cc1ccccc1 [Compound 19]	9.9	max.	–
CCCCN(CCCC)c1nc(NN=Cc2ccc([N+](=O)[O-])cc2)nc(Nc2ccc([N+](=O)[O-])cc2)n1 [Compound 5]	49.3	max.	–
Cc1ccc(Nc2nc(NCc3ccccc3)nc(NN=Cc3ccccc3F)n2)cc1C [Compound 228]	79.3	max.	–
CNc1nc(NN=Cc2ccccc2C(F)(F)F)nc(Nc2cccc(C(F)(F)F)c2)n1 [Compound 253]	11	59.9	–
